What was measured:
[1] = Caco-2 Permeability Assay; format: in vitro ADME; details: human, apparent permeability A to B, compound at 10 μM, apical buffer pH 6.0, basolateral buffer pH 7.4, read-out: Papp (cm/sec, *10^−6)
Excerpt: Caco-2 Permeability Assay Caco-2 cells are purchased from Cell Culture Services as frozen instant cells at a concentration of 1*10^7 cells/vial. DMEM+glutamax-I culture media is purchased from Gibco (10569). Fetal bovine serum (FBS) is purchased from HyClone (SH30396.03). Pennicilin/Streptomycin antibiotics are purchased from Gibco (15140). MEM non-essential amino acids are purchased from Gibco (11140). Hank's balanced salt solution (HBSS) is purchased from Gibco (14025). Bovine serum albumin (BSA) is purchased from Sigma-Aldrich (A7906). MES low moisture is purchased from Sigma-Aldrich (M3671). HEPES is purchased from Sigma-Aldrich (H3375). Dimethyl Sulfoxide (DMSO) is purchased from EMD (MX1457-6). Complete DMEM media is prepared by adding 1 L of FBS, 100 mL of pen/strep and 110 mL of MEM non essential amino acids to 10 L of DMEM+glutamax-I. […] Caco-2 cells are seeded on HTS transwell 24-well plates purchased from Corning (3397). These polycarbonate membrane plates have a diameter of […] and pore size of 0.4 μm. The Caco-2 cells vial is thawed in a 37° C. water bath until only a small ice pellet is left. The vial is then transferred to the laminar flow hood and its exterior is extensively washed with 70% ethanol. The total content of the vial (2 mL) is transferred into a 50 mL tube containing 38 mL of complete DMEM. […] The seeding is done by the Hamilton star robotic station which is controlled with the Venus program. Each well will receive 600 μL of complete DMEM on its basolateral side and 200 μL of cells on its apical side. Each well receives 50 000 cells. The 24-well plates are then returned to an automated Liconic STX110 incubator set at 37° C., 5% CO2 and 100% humidity. The culture media for the cells is changed every two days except on weekends. These cells are maintained for a period of two weeks prior to the running of the permeability assay. Permeability assays are usually performed between day 15 and 18 after the initial seeding. […] Controls for the assay are mannitol for tight junction determination and Digoxin for efflux transporter (p-glycoprotein) expression. On the day of the assay, each compound is diluted to 10 μM in the buffer (apical for A to B). 6 μl of the 5 mM DMSO stock is added to 3 mL of the buffer in a 24-well 10 mL deep plate covered with a lid. The plate containing all the diluted compounds is spun for 10 min at 3000 rpm in a Rotanta 46 RSC centrifuge from Hettich to remove unsoluble compound. This dilution is used to add at the start of the incubation. Each compound is tested in duplicate. On the day of the assay, the culture media of the 24-well plate is removed and replaced with warm HBSS. The HBSS is then also removed and the Apical and Basolatral buffer are added to their respective side of the transwells. These steps are performed by the Hamilton Star robotic station. The plate is then placed in a 37° C. incubator and is left to equilibrate for 30 min. After 30 min of incubation a background sample (25 μL from each well) is taken from the receiver side (Basolateral for A to B), and replenished with warm buffer. These samples and all others afterwards are kept in a 96-well 1 mL plate. To start the assay, the donor compartment (apical for A to B) is emptied and replaced with new buffer containing the compound at 10 μM. Once the compounds are added, the plate is returned to the 37° C. incubator and the timer is started. In order to determine how much compound is actually added to each well, a 50 μL sample is taken from each compound dilution, this sample is refered to as the load. These steps and the following are performed by the Tecan Freedom EVO robotic station controlled via the Gemini software. For A-to-B Assay: Samples (190 μL) are taken from each basolateral (receiver) chamber at time points 0, 60, 120 and 180 min or at time points 0, 30, 60 and 90 min. From the 190 μL taken, 50 μL is transferred to the receiving plate and 140 μL is discarded.

HIV-1 = experiment: C8166 HIV-1 Luciferase Assay (EC50); format: cell-based; details: Human immunodeficiency virus 1, C8166, 72 h
Method: C8166 HIV-1 Luciferase Assay (Ec50)
The assay used to measure inhibition of HIV replication is as described in WO 2004/050643, pages 73-75, incorporated herein by reference, with the following modifications:
Serial dilutions of HIV-1 inhibitors are prepared in complete media from DMSO stock solutions. Eleven serial dilutions of desired concentration are prepared in a 1 mL deep well titer plate (96 wells). The 12th well contains complete media with no inhibitor and serves as the positive control. All samples contain the same concentration of DMSO (<0.1% DMSO). Inhibitor is added, to triplicate wells, of a 96 well tissue culture treated clear view black microtiter plate (Corning Costar catalogue #3904). The total volume per well is 200 μL of media containing the cells and inhibitor. The last row is reserved for uninfected C8166 LTRIuc cells to serve as the background blank control and the first row is media alone.
Count C8166 LTRIuc cells and place in a minimal volume of complete RPMI 1640 in a tissue culture flask (ex. 30×10^6 cells in 10 mL media/25 cm^2 flask). Infect cells with HIV-1 at a moi of 0.005. Incubate cells for 1.5 h at 37° C. on a rotating rack in a 5% CO2 incubator. Resuspend cells in complete RPMI to give a final concentration of 25,000-cells/well. Add cells to wells of 96 well microtiter plate containing inhibitors. Add 25,000 uninfected C8166-LTRIuc cells/well in 200 μL complete RPMI to last row for background control. Incubate cells at 37° C. in 5% CO2 incubator for 3 days.
50 μL Steady Glo (luciferase substrate T112=5 hours Promega catalogue # E2520) is added to each well of the 96 well plate. The relative light units (RLU) of luciferase are determined using a luminescence plate reader. The calculated % inhibition values are used to determine EC50, slope factor (n) and maximum inhibition (Imax).

Row | SMILES | Papp A→B at 10 μM [1] [×10⁻⁶ cm/s] | EC50 (HIV-1) [nM]
1 | CNc1ccc(-c2nc(=O)n(CCC3CCCO3)c3c2oc2ccc(-c4cncs4)cc23)cn1 (stereo not drawn) [Compound 1028] | 19.9 | 50
2 | CNc1ccc(-c2nc(=O)n(CCC3CCCO3)c3c2oc2c(F)cc(-c4cnco4)cc23)cn1 (stereo not drawn) [Compound 1029] | 16.1 | 19
3 | CNc1ccc(-c2nc(=O)n(CCC3CCCO3)c3c2oc2c(F)cc(-c4cnn(C)c4)cc23)cn1 (stereo not drawn) [Compound 1030] | 6.1 | 10.2
4 | Cn1cc(-c2cc(F)c3oc4c(-c5ccc(N6CCOCC6)nc5)nc(=O)n(CCC5CCCO5)c4c3c2)cn1 (stereo not drawn) [Compound 1031] | 6.4 | 14
5 | CNc1ccc(-c2nc(=O)n(CCC3CCCO3)c3c2oc2cc(F)c(-c4cnn(C)c4)cc23)cn1 (stereo not drawn) [Compound 1032] | 7.7 | 11.9
6 | Cn1cc(-c2cc3c(cc2F)oc2c(-c4ccc(N5CCC5)nc4)nc(=O)n(CCC4CCCO4)c23)cn1 (stereo not drawn) [Compound 1033] | 6.9 | 7.6
7 | CN(C)c1ccc(-c2nc(=O)n(CCC3CCCO3)c3c2oc2cc(F)c(-c4cnn(C)c4)cc23)cn1 (stereo not drawn) [Compound 1034] | 6.8 | 23
8 | CN(C)c1ccc(-c2nc(=O)n(CCC3CCCO3)c3c2oc2ccc(-c4cncs4)cc23)cn1 (stereo not drawn) [Compound 1035] | 11.5 | 9.4
9 | CNc1ccc(-c2nc(=O)n(CCC3CCCCO3)c3c2oc2ccc(-c4cnn(C)c4)cc23)cn1 (stereo not drawn) [Compound 1036] | 7.6 | 6.8
10 | C[C@@H]1C[C@H](n2c(=O)nc(-c3cnn(C)c3)c3oc4ccc(-c5cnn(C)c5)cc4c32)C[C@H](C)O1 [Compound 1039] | 16.8 | 36
11 | CC[C@H]1C[C@@H](n2c(=O)nc(-c3cnn(C)c3)c3oc4ccc(-c5cccnc5)cc4c32)CCO1 [Compound 1040] | 19.2 | 12.8
12 | CC[C@H]1C[C@@H](n2c(=O)nc(-c3cnn(C)c3)c3oc4ccc(-c5cnn(CC)c5)cc4c32)CCO1 [Compound 1041] | 26.9 | 6.6
13 | CC[C@H]1C[C@@H](n2c(=O)nc(-c3cnn(C)c3)c3oc4cc(F)c(-c5cnn(C)c5)cc4c32)CCO1 [Compound 1042] | 23.4 | 6.9
14 | CC[C@H]1C[C@@H](n2c(=O)nc(-c3cnn(C)c3)c3oc4cc(F)c(-c5cnc(C)o5)cc4c32)CCO1 [Compound 1044] | 12.4 | 22
15 | CC[C@H]1C[C@@H](n2c(=O)nc(-c3cnn(C)c3)c3oc4cc(F)c(-c5ccc(CO)nc5)cc4c32)CCO1 [Compound 1045] | 9.4 | 17.3
16 | CC[C@H]1C[C@@H](n2c(=O)nc(-c3cnn(C)c3)c3oc4cc(F)c(-c5ccc(C(C)O)nc5)cc4c32)CCO1 (stereo partly drawn) [Compound 1046] | 17.9 | 110
17 | CC[C@H]1C[C@@H](n2c(=O)nc(-c3cnn(C)c3)c3oc4cc(Cl)c(-c5cnn(C)c5)cc4c32)CCO1 [Compound 1048] | 22.1 | 6

Row | SMILES | Papp A→B at 10 μM [1] [×10⁻⁶ cm/s] | EC50 (HIV-1) [nM]
18 | CC[C@H]1C[C@@H](n2c(=O)nc(-c3cnn(C)c3)c3oc4cc(C)c(-c5cnn(C)c5)cc4c32)CCO1 [Compound 1050] | 19.1 | 7.7
19 | CC[C@H]1C[C@@H](n2c(=O)nc(-c3cnn(C)c3)c3oc4cc(C#N)c(-c5cccnc5)cc4c32)CCO1 [Compound 1051] | 15.4 | 220
20 | C[C@@H]1C[C@H](n2c(=O)nc(-c3cnn(C)c3)c3oc4cc(C#N)c(-c5cnn(C)c5)cc4c32)C[C@H](C)O1 [Compound 1052] | 18.2 | 150
21 | CC[C@H]1C[C@@H](n2c(=O)nc(-c3cnn(C)c3)c3oc4cc(C#N)c(-c5cnn(C)c5)cc4c32)C[C@@H](C)O1 [Compound 1053] | 22.2 | 43
22 | CC[C@H]1C[C@@H](n2c(=O)nc(-c3cnn(C)c3)c3oc4cc(C#N)c(-c5ccn(C)n5)cc4c32)CCO1 [Compound 1054] | 20.3 | 32.2
23 | CC[C@H]1C[C@@H](n2c(=O)nc(-c3cnn(C)c3)c3oc4cc(OC)c(-c5cnn(C)c5)cc4c32)CCO1 [Compound 1055] | 8.42 | 3.6
24 | COc1cc2oc3c(-c4cnn(C)c4)nc(=O)n(CC[C@@H]4CCCO4)c3c2cc1-c1cnn(C)c1 [Compound 1056] | 6.7 | 8.3
25 | CC[C@H]1C[C@@H](n2c(=O)nc(-c3cnn(C)c3)c3oc4c(OC)cc(-c5cnn(C)c5)cc4c32)CCO1 [Compound 1057] | 14.9 | 2.2
26 | CC[C@H]1C[C@@H](n2c(=O)nc(-c3cnn(C)c3)c3oc4c(C)cc(-c5cnn(C)c5)cc4c32)CCO1 [Compound 1058] | 16.6 | 0.6
27 | CC[C@H]1C[C@@H](n2c(=O)nc(-c3cnn(C)c3)c3oc4c(C#N)c(C)c(-c5cnn(C)c5)cc4c32)CCO1 [Compound 1060] | 13 | 140
28 | CC[C@H]1C[C@@H](n2c(=O)nc(-c3cnn(C)c3)c3oc4ncc(-c5cnn(C)c5)cc4c32)CCO1 [Compound 1061] | 9.3 | 20.3
29 | CNc1ccc(-c2nc(=O)n(CCC3CCCO3)c3c2oc2ncc(-c4cnco4)cc23)cn1 (stereo not drawn) [Compound 1066] | 8.3 | 110
30 | CCn1cc(-c2cnc3oc4c(-c5ccc(NC)nc5)nc(=O)n(CCC5CCCCO5)c4c3c2)cn1 (stereo not drawn) [Compound 1067] | 5.3 | 40
31 | CNc1ccc(-c2nc(=O)n(CCC3CCCO3)c3c2oc2ncc(-c4cnn(CC5CC5)c4)cc23)cn1 (stereo not drawn) [Compound 1068] | 8.1 | 78
32 | CC[C@H]1C[C@@H](n2c(=O)nc(-c3cnn(CC)c3)c3oc4ncc(-c5cnn(CC)c5)cc4c32)CCO1 [Compound 1072] | 21.4 | 110
33 | Cn1cc(-c2cnc3oc4c(-c5cnn(C)c5)nc(=O)n(CCC5CCCCO5)c4c3c2)cn1 (stereo not drawn) [Compound 1074] | 11 | 90

Source: patent US9399645B2, “Inhibitors of HIV replication” (Boehringer Ingelheim International GmbH, priority 2011, dated 2016)
